{"source": "the supplement of paper PMC10307832", "experiment_in_all_cases": "relative viability (nuclei count vs DMSO), 5 days (fraction); higher = more cells survive", "key": {"[1]": {"tested_on": "NCI-H2170", "method_in_brief": "(§1)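 Relative viability divides the nuclei count in treated wells by that in vehicle wells. Lung cancer cell lines were seeded in 1536-well plates, dosed by pin tool the next day, and fixed and stained after 5 days in one step with final 0.05% Triton X-100, 1% formaldehyde and 1 ug/ml Hoechst. Dosing was a single drug or a fixed anchor-drug dose plus five library-drug doses (not always all listed) in √10 steps, and values are medians of duplicate plates imaged at 4×.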"}, "[2]": {"tested_on": "SK-LU-1", "method_in_brief": "as §1"}, "[3]": {"tested_on": "UMC-11", "method_in_brief": "as §1"}, "[4]": {"tested_on": "HCC-366", "method_in_brief": "as §1"}, "[5]": {"tested_on": "NCI-H2228", "method_in_brief": "as §1"}, "[6]": {"tested_on": "NCI-H1915", "method_in_brief": "as §1"}, "[7]": {"tested_on": "LCLC-103H", "method_in_brief": "as §1"}, "[8]": {"tested_on": "NCI-H1734", "method_in_brief": "as §1"}, "[9]": {"tested_on": "NCI-H23", "method_in_brief": "as §1"}, "[10]": {"tested_on": "RERF-LC-KJ", "method_in_brief": "as §1"}, "[11]": {"tested_on": "NCI-H1975", "method_in_brief": "as §1"}, "[12]": {"tested_on": "NCI-H650", "method_in_brief": "as §1"}, "[13]": {"tested_on": "NCI-H1792", "method_in_brief": "as §1"}, "[14]": {"tested_on": "SW 1573", "method_in_brief": "as §1"}, "[15]": {"tested_on": "HCC-827", "method_in_brief": "as §1"}, "[16]": {"tested_on": "SK-MES-1", "method_in_brief": "as §1"}, "[17]": {"tested_on": "A-427", "method_in_brief": "as §1"}, "[18]": {"tested_on": "LC-2-ad", "method_in_brief": "as §1"}, "[19]": {"tested_on": "NCI-H1993", "method_in_brief": "as §1"}, "[20]": {"tested_on": "NCI-H1355", "method_in_brief": "as §1"}, "[21]": {"tested_on": "NCI-H2347", "method_in_brief": "as §1"}, "[22]": {"tested_on": "NCI-H1755", "method_in_brief": "as §1"}}, "data": [{"compound": "Cc1csc(=NC2CCCCC2)n1/N=C/c1ccc(O)c(O)c1O", "note": "[MIM1] + Cc1nc(NC(=O)N2CCC[C@H]2C(N)=O)sc1-c1ccnc(C(C)(C)C(F)(F)F)c1 [Alpelisib] (partner 2 µM)", "values": [{"measurement": "relative viability", "setting": "[1]; first compound 0.2 µM", "value": 0.769}, {"measurement": "relative viability", "setting": "[1]; first compound 0.6325 µM", "value": 0.814}, {"measurement": "relative viability", "setting": "[1]; first compound 2 µM", "value": 0.812}, {"measurement": "relative viability", "setting": "[1]; first compound 6.325 µM", "value": 0.651}, {"measurement": "relative viability", "setting": "[1]; first compound 20 µM", "value": 0.337}, {"measurement": "relative viability", "setting": "[2]; first compound 0.2 µM", "value": 1}, {"measurement": "relative viability", "setting": "[2]; first compound 0.6325 µM", "value": 1.06}, {"measurement": "relative viability", "setting": "[2]; first compound 2 µM", "value": 1.26}, {"measurement": "relative viability", "setting": "[2]; first compound 6.325 µM", "value": 0.87}, {"measurement": "relative viability", "setting": "[2]; first compound 20 µM", "value": 0.715}, {"measurement": "relative viability", "setting": "[3]; first compound 0.2 µM", "value": 0.952}, {"measurement": "relative viability", "setting": "[3]; first compound 0.6325 µM", "value": 1.04}, {"measurement": "relative viability", "setting": "[3]; first compound 2 µM", "value": 0.962}, {"measurement": "relative viability", "setting": "[3]; first compound 6.325 µM", "value": 0.69}, {"measurement": "relative viability", "setting": "[3]; first compound 20 µM", "value": 0.224}, {"measurement": "relative viability", "setting": "[4]; first compound 0.2 µM", "value": 0.37}, {"measurement": "relative viability", "setting": "[4]; first compound 0.6325 µM", "value": 0.37}, {"measurement": "relative viability", "setting": "[4]; first compound 2 µM", "value": 0.335}, {"measurement": "relative viability", "setting": "[4]; first compound 6.325 µM", "value": 0.308}, {"measurement": "relative viability", "setting": "[4]; first compound 20 µM", "value": 0.0363}, {"measurement": "relative viability", "setting": "[5]; first compound 0.2 µM", "value": 0.76}, {"measurement": "relative viability", "setting": "[5]; first compound 0.6325 µM", "value": 1.09}, {"measurement": "relative viability", "setting": "[5]; first compound 2 µM", "value": 0.666}, {"measurement": "relative viability", "setting": "[5]; first compound 6.325 µM", "value": 0.335}, {"measurement": "relative viability", "setting": "[5]; first compound 20 µM", "value": 0.197}, {"measurement": "relative viability", "setting": "[6]; first compound 0.2 µM", "value": 1.14}, {"measurement": "relative viability", "setting": "[6]; first compound 0.6325 µM", "value": 1.04}, {"measurement": "relative viability", "setting": "[6]; first compound 2 µM", "value": 1.02}, {"measurement": "relative viability", "setting": "[6]; first compound 6.325 µM", "value": 0.773}, {"measurement": "relative viability", "setting": "[6]; first compound 20 µM", "value": 0.277}, {"measurement": "relative viability", "setting": "[7]; first compound 0.2 µM", "value": 0.9}, {"measurement": "relative viability", "setting": "[7]; first compound 0.6325 µM", "value": 1.08}, {"measurement": "relative viability", "setting": "[7]; first compound 2 µM", "value": 1.08}, {"measurement": "relative viability", "setting": "[7]; first compound 6.325 µM", "value": 0.913}, {"measurement": "relative viability", "setting": "[7]; first compound 20 µM", "value": 0.928}, {"measurement": "relative viability", "setting": "[8]; first compound 0.2 µM", "value": 0.738}, {"measurement": "relative viability", "setting": "[8]; first compound 0.6325 µM", "value": 0.655}, {"measurement": "relative viability", "setting": "[8]; first compound 2 µM", "value": 0.696}, {"measurement": "relative viability", "setting": "[8]; first compound 6.325 µM", "value": 0.655}, {"measurement": "relative viability", "setting": "[8]; first compound 20 µM", "value": 0.38}, {"measurement": "relative viability", "setting": "[9]; first compound 0.2 µM", "value": 0.653}, {"measurement": "relative viability", "setting": "[9]; first compound 2 µM", "value": 0.555}, {"measurement": "relative viability", "setting": "[9]; first compound 6.325 µM", "value": 0.606}, {"measurement": "relative viability", "setting": "[9]; first compound 20 µM", "value": 0.203}, {"measurement": "relative viability", "setting": "[10]; first compound 0.2 µM", "value": 0.802}, {"measurement": "relative viability", "setting": "[10]; first compound 0.6325 µM", "value": 0.801}, {"measurement": "relative viability", "setting": "[10]; first compound 2 µM", "value": 0.704}, {"measurement": "relative viability", "setting": "[10]; first compound 6.325 µM", "value": 0.668}, {"measurement": "relative viability", "setting": "[10]; first compound 20 µM", "value": 0.213}, {"measurement": "relative viability", "setting": "[11]; first compound 0.2 µM", "value": 0.63}, {"measurement": "relative viability", "setting": "[11]; first compound 0.6325 µM", "value": 0.624}, {"measurement": "relative viability", "setting": "[11]; first compound 2 µM", "value": 0.569}, {"measurement": "relative viability", "setting": "[11]; first compound 6.325 µM", "value": 0.391}, {"measurement": "relative viability", "setting": "[11]; first compound 20 µM", "value": 0.313}, {"measurement": "relative viability", "setting": "[12]; first compound 0.2 µM", "value": 1.19}, {"measurement": "relative viability", "setting": "[12]; first compound 0.6325 µM", "value": 1.1}, {"measurement": "relative viability", "setting": "[12]; first compound 2 µM", "value": 1.27}, {"measurement": "relative viability", "setting": "[12]; first compound 6.325 µM", "value": 1.04}, {"measurement": "relative viability", "setting": "[12]; first compound 20 µM", "value": 0.396}, {"measurement": "relative viability", "setting": "[13]; first compound 0.2 µM", "value": 0.67}, {"measurement": "relative viability", "setting": "[13]; first compound 0.6325 µM", "value": 0.654}, {"measurement": "relative viability", "setting": "[13]; first compound 2 µM", "value": 0.694}, {"measurement": "relative viability", "setting": "[13]; first compound 6.325 µM", "value": 0.433}, {"measurement": "relative viability", "setting": "[13]; first compound 20 µM", "value": 0.599}, {"measurement": "relative viability", "setting": "[14]; first compound 0.2 µM", "value": 0.809}, {"measurement": "relative viability", "setting": "[14]; first compound 0.6325 µM", "value": 0.758}, {"measurement": "relative viability", "setting": "[14]; first compound 2 µM", "value": 0.808}, {"measurement": "relative viability", "setting": "[14]; first compound 6.325 µM", "value": 0.639}, {"measurement": "relative viability", "setting": "[14]; first compound 20 µM", "value": 0.618}, {"measurement": "relative viability", "setting": "[15]; first compound 0.2 µM", "value": 0.953}, {"measurement": "relative viability", "setting": "[15]; first compound 0.6325 µM", "value": 0.986}, {"measurement": "relative viability", "setting": "[15]; first compound 2 µM", "value": 0.913}, {"measurement": "relative viability", "setting": "[15]; first compound 6.325 µM", "value": 0.441}, {"measurement": "relative viability", "setting": "[15]; first compound 20 µM", "value": 0.34}, {"measurement": "relative viability", "setting": "[16]; first compound 0.2 µM", "value": 0.913}, {"measurement": "relative viability", "setting": "[16]; first compound 0.6325 µM", "value": 0.774}, {"measurement": "relative viability", "setting": "[16]; first compound 2 µM", "value": 0.813}, {"measurement": "relative viability", "setting": "[16]; first compound 6.325 µM", "value": 0.8}, {"measurement": "relative viability", "setting": "[16]; first compound 20 µM", "value": 0.725}, {"measurement": "relative viability", "setting": "[17]; first compound 0.2 µM", "value": 1.09}, {"measurement": "relative viability", "setting": "[17]; first compound 0.6325 µM", "value": 1.06}, {"measurement": "relative viability", "setting": "[17]; first compound 2 µM", "value": 1.15}, {"measurement": "relative viability", "setting": "[17]; first compound 6.325 µM", "value": 1.06}, {"measurement": "relative viability", "setting": "[17]; first compound 20 µM", "value": 0.335}, {"measurement": "relative viability", "setting": "[18]; first compound 0.2 µM", "value": 0.867}, {"measurement": "relative viability", "setting": "[18]; first compound 0.6325 µM", "value": 0.905}, {"measurement": "relative viability", "setting": "[18]; first compound 2 µM", "value": 0.946}, {"measurement": "relative viability", "setting": "[18]; first compound 6.325 µM", "value": 0.527}, {"measurement": "relative viability", "setting": "[18]; first compound 20 µM", "value": 0.116}, {"measurement": "relative viability", "setting": "[19]; first compound 0.2 µM", "value": 0.715}, {"measurement": "relative viability", "setting": "[19]; first compound 0.6325 µM", "value": 0.619}, {"measurement": "relative viability", "setting": "[19]; first compound 2 µM", "value": 0.758}, {"measurement": "relative viability", "setting": "[19]; first compound 6.325 µM", "value": 0.724}, {"measurement": "relative viability", "setting": "[19]; first compound 20 µM", "value": 0.55}, {"measurement": "relative viability", "setting": "[20]; first compound 0.2 µM", "value": 0.89}, {"measurement": "relative viability", "setting": "[20]; first compound 0.6325 µM", "value": 0.805}, {"measurement": "relative viability", "setting": "[20]; first compound 2 µM", "value": 0.924}, {"measurement": "relative viability", "setting": "[20]; first compound 6.325 µM", "value": 0.672}, {"measurement": "relative viability", "setting": "[20]; first compound 20 µM", "value": 0.359}, {"measurement": "relative viability", "setting": "[21]; first compound 0.2 µM", "value": 1.03}, {"measurement": "relative viability", "setting": "[21]; first compound 0.6325 µM", "value": 1.02}, {"measurement": "relative viability", "setting": "[21]; first compound 2 µM", "value": 1.13}, {"measurement": "relative viability", "setting": "[21]; first compound 6.325 µM", "value": 0.728}, {"measurement": "relative viability", "setting": "[21]; first compound 20 µM", "value": 0.534}, {"measurement": "relative viability", "setting": "[22]; first compound 0.2 µM", "value": 0.93}, {"measurement": "relative viability", "setting": "[22]; first compound 0.6325 µM", "value": 0.953}, {"measurement": "relative viability", "setting": "[22]; first compound 2 µM", "value": 0.961}, {"measurement": "relative viability", "setting": "[22]; first compound 6.325 µM", "value": 0.72}, {"measurement": "relative viability", "setting": "[22]; first compound 20 µM", "value": 0.207}]}]}
